One assay concerns H3122 cell line. Kind of assay: Ceritinib sensitivity of parental H3122 cell line. The class given is cell-based. The following applies: Homo sapiens, NCI-H3122; ALK-positive H3122 parental cell line. The procedure: (§1) In the particular study reported here, resistance to the small molecule ALK inhibitor Ceritinib was studied. The patient-derived cell line H3122 is a NSCLC line with an EML4-ALK fusion, and it is sensitive to Ceritinib. To simulate the clinical development of therapeutic resistance following initial treatment, this cell line was cultured over a period of 6 months with low but increasing doses of Ceritinib. […] These clones were expanded and comprise the cell lines LDKR1-4.
(§2) FIG. 5 is a schematic diagram showing the development of the cell lines.

For the next assay, the target named is ALK (Homo sapiens, UniProt Q9UM73). Put plainly: Proteomic/phosphoproteomic profiling of ALK phosphorylation after Ceritinib treatment. The class given is cell-based. The procedure: The H3122 parental and LDKR1-4 cell lines were each grown in culture with or without the addition of Ceritinib for 24 hours, and harvested cells were subsequently processed for both proteomic and phosphoproteomic analyses. Specifically, each of the cell lines was cultured in RPMI-1640 media supplemented with 10% FBS, 100 units/mL penicillin, and 100 μg/mL streptomycin. Cells were treated for 24 hours with 300 nM Ceritinib (also known as LDK378). Cells were collected, and the cell pellets were resuspended in mammalian lysis buffer and lysed by passage through a 21 gauge needle. The lysate was centrifuged at 15,000×g for 5 minutes at 4° C., and insoluble debris was discarded.
The lysates were then prepared for mass spectrometry analysis. Samples were reduced with DTT, alkylated with iodoacetamide, and precipitated with methanol/chloroform. […] Samples were quenched with 1% TFA and desalted using Sep-Pak C18 (SPE) cartridges (obtained from Waters Corp., Milford, MA). The peptide concentration of each sample was determined using a BCA assay.
For phosphoproteomic analysis, 2.0 mg of digested peptides were enriched for phosphopeptides using titanium dioxide beads, labeled with TMT10-plex reagents, and further enriched with a phosphotyrosine antibody. Specifically, 8 mg of titanium dioxide beads were incubated with the peptide in binding buffer (2 M lactic acid in 50% ACN/50% H2O) for 1 hour with gentle shaking. […] Samples were acidified and desalted over Sep-Pak C18 SPE cartridges.

The next assay relates to LDKR1-4 cell lines. Put plainly: Ceritinib sensitivity of resistant clones LDKR1-4. The class given is cell-based. The procedure:
as §1, §2

For the next assay, the system named is Aurora Kinases. The following applies: cited from earlier work.
For assay [1], the system named is breast cancer cell lines with dysregulated BRCA1-associated genome surveillance complex. Kind of assay: Drug response (AUC) of cell lines with vs without dysregulation in the BRCA1-associated genome surveillance complex. To be noted: 41 breast cancer cell lines, AUC ratio dysregulated/not dysregulated, FIG. 32A. It counts as cell-based. As for the experimental part:
(§3) The drug candidates were screened at different concentrations, and the response to each drug candidate was measured as an area under the curve (AUC). Three known complexes—the BRCA1-associated genome surveillance complex, the centromere, and the proteasome—were selected from the CORUM database, and for each complex, the cell lines evaluated were separated into a first group in which cell lines carried dysregulated protein-protein interactions on any of the proteins in the complex, and a second group in which cell lines carried no dysregulations on any of the proteins in the complex.
(§4) Each figure is a plot showing how protein-protein interaction dysregulation in one of the selected complexes affects the responses of the evaluated breast cancer cell lines to different drug candidates. In each plot, every data point represents a different drug candidate. The horizontal axis in each plot represents the base 2 logarithm of the ratio of the drug candidate response in cell lines with dysregulation to the drug candidate response in cell lines without dysregulation. The vertical axis in each plot, which corresponds to the base 10 logarithm of the Grubbs test p-value, represents the significance of the drug candidate response difference.

In assay [2] the target is T1, polo-like Kinase 4 (PLK4) (Homo sapiens, UniProt O00444).
T1 sequence (O00444 1-970): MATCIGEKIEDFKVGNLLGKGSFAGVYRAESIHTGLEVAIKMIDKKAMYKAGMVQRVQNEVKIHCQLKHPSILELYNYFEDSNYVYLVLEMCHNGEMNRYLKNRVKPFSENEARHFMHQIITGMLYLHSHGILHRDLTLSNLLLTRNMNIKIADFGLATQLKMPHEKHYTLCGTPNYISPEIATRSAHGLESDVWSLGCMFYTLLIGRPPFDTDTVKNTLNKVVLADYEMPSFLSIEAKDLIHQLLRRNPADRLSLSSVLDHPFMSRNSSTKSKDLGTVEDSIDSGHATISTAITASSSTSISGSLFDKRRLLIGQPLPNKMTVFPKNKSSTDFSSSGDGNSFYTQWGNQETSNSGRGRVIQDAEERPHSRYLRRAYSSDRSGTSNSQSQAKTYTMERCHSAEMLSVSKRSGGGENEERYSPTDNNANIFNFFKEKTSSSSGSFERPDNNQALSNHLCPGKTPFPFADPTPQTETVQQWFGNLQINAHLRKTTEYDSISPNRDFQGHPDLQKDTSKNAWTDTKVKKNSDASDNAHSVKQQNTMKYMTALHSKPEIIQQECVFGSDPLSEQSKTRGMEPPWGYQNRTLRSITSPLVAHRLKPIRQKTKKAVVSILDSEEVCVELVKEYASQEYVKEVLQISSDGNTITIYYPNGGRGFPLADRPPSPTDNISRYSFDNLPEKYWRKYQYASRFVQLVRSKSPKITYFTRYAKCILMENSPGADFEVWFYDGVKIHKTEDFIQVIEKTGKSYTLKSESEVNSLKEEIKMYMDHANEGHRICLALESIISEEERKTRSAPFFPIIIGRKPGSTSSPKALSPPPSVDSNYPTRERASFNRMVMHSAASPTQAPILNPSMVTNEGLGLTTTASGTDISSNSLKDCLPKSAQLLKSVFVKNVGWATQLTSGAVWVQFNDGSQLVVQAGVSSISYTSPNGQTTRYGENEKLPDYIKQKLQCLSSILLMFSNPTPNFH
To be noted: cited from earlier work.

Assay [3] relates to breast cancer cell lines with dysregulated centromere complex. Put plainly: Drug response (AUC) of cell lines with vs without dysregulation in the centromere complex. It counts as cell-based. To be noted: 41 breast cancer cell lines, AUC ratio, FIG. 32B. As for the experimental part:
as §3, §4

Assay [4] has as its system breast cancer cell lines with dysregulated proteasome complex. Put plainly: Drug response (AUC) of cell lines with vs without dysregulation in the proteasome complex. The class given is cell-based. To be noted: 41 breast cancer cell lines, AUC ratio, FIG. 32C. The procedure:
as §3
as §4, with “difference. […]” for “difference.”

Setting [5] is: parental H3122, 300 nM Ceritinib, 24 hours, ratio to parental with no drug.

pIC50: −log10 of the molar value.

A word on the pIC50: it is the negative decadic logarithm of the IC50, by convention in mol/L.

ALK, sequence (Q9UM73 with tags, fused parts or gaps): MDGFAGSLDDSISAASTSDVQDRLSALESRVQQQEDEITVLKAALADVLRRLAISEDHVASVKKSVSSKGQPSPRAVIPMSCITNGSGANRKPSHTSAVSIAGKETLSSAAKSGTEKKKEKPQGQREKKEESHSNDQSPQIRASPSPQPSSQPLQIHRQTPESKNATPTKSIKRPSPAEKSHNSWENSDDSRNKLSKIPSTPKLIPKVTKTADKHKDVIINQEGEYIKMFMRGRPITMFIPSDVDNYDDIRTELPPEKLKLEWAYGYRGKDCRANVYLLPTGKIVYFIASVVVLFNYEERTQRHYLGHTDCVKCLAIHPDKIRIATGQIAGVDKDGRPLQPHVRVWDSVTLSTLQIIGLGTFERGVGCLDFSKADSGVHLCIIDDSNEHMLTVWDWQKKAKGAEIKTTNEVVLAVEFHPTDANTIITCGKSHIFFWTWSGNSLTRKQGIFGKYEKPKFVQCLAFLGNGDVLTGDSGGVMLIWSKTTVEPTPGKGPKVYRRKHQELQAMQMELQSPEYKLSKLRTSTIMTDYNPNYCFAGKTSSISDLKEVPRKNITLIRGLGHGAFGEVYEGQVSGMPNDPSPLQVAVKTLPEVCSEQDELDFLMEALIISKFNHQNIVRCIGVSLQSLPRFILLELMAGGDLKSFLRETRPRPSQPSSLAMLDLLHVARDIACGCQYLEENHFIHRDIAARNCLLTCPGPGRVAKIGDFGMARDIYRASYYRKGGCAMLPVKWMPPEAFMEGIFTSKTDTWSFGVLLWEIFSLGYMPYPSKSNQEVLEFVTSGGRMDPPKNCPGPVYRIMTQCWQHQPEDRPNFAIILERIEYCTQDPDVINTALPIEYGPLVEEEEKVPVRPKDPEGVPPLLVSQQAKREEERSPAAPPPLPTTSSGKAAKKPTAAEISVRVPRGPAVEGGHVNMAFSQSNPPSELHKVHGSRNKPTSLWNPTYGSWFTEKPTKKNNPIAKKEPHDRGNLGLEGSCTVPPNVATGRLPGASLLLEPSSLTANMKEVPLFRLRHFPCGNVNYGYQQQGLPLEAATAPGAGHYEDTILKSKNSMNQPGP

Turning to `Cc1cc(Nc2ncc(Cl)c(Nc3ccccc3S(=O)(=O)C(C)C)n2)c(OC(C)C)cc1C1CCNCC1` [Ceritinib], the pIC50 with H3122 cell line was 7.28. For the same compound, the “inhibition of ALK activity in resistant cell lines” value against ALK (LDKR1-4, Ceritinib treatment) was “continued to be effective at inhibiting ALK activity in at least three of the four resistant cell lines”. Moreover, on ALK (setting [5]), the “ALK Thr 1506/Tyr 1507/Ser 1509 phosphorylation upon drug treatment” value is given as “decreasing fourfold” and the “ALK Tyr 1078 phosphorylation upon drug treatment” value is on record as “decreased”. For the same compound, the “IC50 relative to the parental sensitive cell line” value in the assay with LDKR1-4 cell lines (four resistant clones vs parental H3122) was “at least twenty times higher”. Moreover, in the assay with LDKR1-4 cell lines (resistant clones LDKR1-4), the pIC50 is 5.41 to 5.83.

For `NC(=O)Nc1sc(-c2ccc(F)cc2)cc1C(N)=O` [TPCA-1], the “inhibition of Aurora Kinases” value with Aurora Kinases is “potently inhibit”. `Cc1cc(Nc2nc(N[C@@H](C)c3ncc(F)cn3)ncc2Cl)n[nH]1` [AZD1480]: in the assay on Aurora Kinases, the “inhibition of Aurora Kinases” value is reported as “potently inhibit”. Take Bleomycin: the “effect of dysregulation in the genome surveillance complex on cell line response to drug” value in assay [1] is listed as “sensitize”. For `COc1cc2c(Oc3ccc(NC(=O)C4(C(=O)Nc5ccc(F)cc5)CC4)cc3F)ccnc2cc1OCCCN1CCOCC1` [XL-880, foretinib], the “inhibition of polo-like Kinase 4 (PLK4)” value in assay [2] is listed as “inhibits”. In addition, the “inhibition of Aurora Kinases” value in the assay on Aurora Kinases was “potently inhibit”. As for `O=C(/C=C/c1ccc(CN(CCO)CCc2c[nH]c3ccccc23)cc1)NO` [LAQ824], in assay [3], the “effect of dysregulation in the centromere complex on cell line response to drug” value was “sensitize”. Still for that read-out and setting: for `O=C(CCCCCCNC(=O)c1cnc(N(c2ccccc2)c2ccccc2)nc1)NO` [ACY-1215] the value was “sensitize”. On to `Nc1ccn([C@@H]2O[C@H](CO)[C@@H](O)C2(F)F)c(=O)n1` [Gemcitabine], for which the “effect of dysregulation in the genome surveillance complex on cell line response to drug” value in assay [1] was “sensitize”. For `C#Cc1cccc(Nc2ncnc3cc(OC)c(OCCCCCCC(=O)NO)cc23)c1` [CUDC-101], in assay [3], the “effect of dysregulation in the centromere complex on cell line response to drug” value is given as “sensitize”. For the compound `CC(C)C[C@H](NC(=O)[C@H](CCc1ccccc1)NC(=O)CN1CCOCC1)C(=O)N[C@@H](Cc1ccccc1)C(=O)N[C@@H](CC(C)C)C(=O)[C@@]1(C)CO1` [Carfilzomib], the “effect of dysregulation in the proteasome complex on cell line response to drug” value in assay [4] is on record as “densensitized”.

Values taken from patent US11899022B2, “Multiplexed proteomics and predictive drug candidate assessment” (The General Hospital Corporation, priority 2017, dated 2024).
